The values that follow come from PubChem BioAssay AID1224921 (Broad Institute, 2016).

A word on the AC50: it is the concentration at which the activity in the assay is half-maximal.

Calls of active or inactive are those of the source. No rule for the calls is given here. Bounds are passed on as bounds.

The subject of this assay is Clostridioides difficile clinical isolate growth, OD600, 24 h. The assay is described as follows: inhibitors of Clostridioides difficile proliferation – 4-point retest, confirmation (AID 1224921).
For `CO[C@@H](CN(C)C(=O)C1CCOCC1)[C@H](C)CN(C(=O)Nc1ccc(C(F)(F)F)cc1)[C@@H](C)CO`, the half-maximal activity concentration (AC50) was 3.45 µM.
As to `O=C(C[C@H]1CC[C@@H]2[C@H](COC[C@@H](O)CN2S(=O)(=O)c2ccc(F)cc2)O1)NCC1CCCCC1`, the AC50 is 15.8 µM.
On to `O=C(C[C@H]1CC[C@H]2[C@@H](COC[C@@H](O)CN2C(=O)Nc2cc(Cl)cc(Cl)c2)O1)N1CCOCC1`, for which the AC50 was 9.57 µM.
Consider `O=C(NCC[C@H]1CC[C@@H](NC(=O)Nc2cc(F)ccc2F)[C@H](CO)O1)Nc1ccc(Cl)cc1`, for which the AC50 was 18.5 µM.
`CC(C)NC(=O)N1[C@H](CO)[C@@H](c2ccc(-c3ccc(F)cc3)cc2)[C@@H]1C#N`: the AC50 is 22.6 µM.
For `CCNC(=O)C[C@H]1CC[C@H]2[C@@H](COC[C@@H](O)CN2C(=O)Nc2ccc(C(F)(F)F)cc2)O1`, the AC50 is 2.77 µM.
On to `C[C@H]1CCCCO[C@H](CN(C)CC2CC2)[C@@H](C)CN([C@@H](C)CO)C(=O)c2cc(NC(=O)Nc3ccc(C(F)(F)F)cc3)ccc2O1`, for which the AC50 is 5.12 µM.
Regarding `C[C@@H]1CN([C@@H](C)CO)C(=O)c2cccc(NC(=O)Nc3ccc(C(F)(F)F)cc3)c2O[C@@H]1CN(C)C(=O)Nc1ccc(F)cc1`, the AC50 was 30 µM.
Regarding `O=C(C[C@@H]1CC[C@H]2[C@@H](COC[C@@H](O)CN2C(=O)Nc2cc(Cl)cc(Cl)c2)O1)N1CCCCC1`, the AC50 is 6.58 µM.
Then `COc1ccc(CN(C)C[C@H]2Oc3c(NC(=O)Nc4ccc(C(F)(F)F)cc4)cccc3C(=O)N([C@@H](C)CO)C[C@H]2C)cc1`, with 1.65 µM.
In the case of `C[C@H](CO)N1C[C@H](C)[C@@H](CN(C)Cc2ccccc2)Oc2ccc(NC(=O)Nc3ccc(C(F)(F)F)cc3)cc2CC1=O`, the AC50 is 31.4 µM.
Then `O=C(C[C@H]1CC[C@@H]2[C@H](COC[C@H](O)CN2C(=O)Nc2ccc(Cl)c(Cl)c2)O1)NCc1ccccc1`, with below 1.95 µM; and `CO[C@@H](CN(C)Cc1cc(F)ccc1F)[C@@H](C)CN(C(=O)Nc1ccc(C(F)(F)F)cc1)[C@@H](C)CO`, with 13.1 µM.
`C[C@@H]1CCCCO[C@H](CN(C)CC2CCCCC2)[C@H](C)CN([C@@H](C)CO)C(=O)c2cc(NS(=O)(=O)c3ccc(Cl)cc3)ccc2O1`: the AC50 is 14.6 µM.
`COc1ccccc1-c1ccc2c(c1)O[C@H](CN(C)C(=O)c1ccccc1)[C@H](C)CN([C@H](C)CO)S2(=O)=O`: the AC50 is > 60 µM (inactive).
Then `CN(C)CC(=O)N[C@@H]1C=C[C@@H](CC(=O)NCCN2CCCCC2)O[C@H]1CO`, with > 60 µM (inactive); and `C[C@@H]1CN([C@@H](C)CO)C(=O)Cc2cc(NC(=O)Nc3ccc(C(F)(F)F)cc3)ccc2O[C@H]1CN(C)Cc1ccccc1`, with 17.9 µM; and `COc1ccccc1CNC(=O)C[C@@H]1CC[C@@H]2[C@H](COC[C@H](O)CN2C(=O)Nc2ccc(C(F)(F)F)cc2)O1`, with 0.614 µM.
As to `O=C(NCC[C@@H]1CC[C@H](NC(=O)C2CC2)[C@H](CO)O1)Nc1ccc(C(F)(F)F)cc1`, the AC50 is 4.32 µM.
`CCC(=O)N[C@H]1CC[C@H](CCNC(=O)Nc2ccc(C(F)(F)F)cc2)O[C@H]1CO`: the AC50 was 16.5 µM.
Turning to `CO[C@H](CN(C)S(=O)(=O)c1cn(C)cn1)[C@@H](C)CN(C(=O)Nc1ccc(C(F)(F)F)cc1)[C@@H](C)CO`, the AC50 was 2.93 µM.
Then `O=C(C[C@H]1CC[C@@H]2[C@H](COC[C@H](O)CN2C(=O)Nc2ccc(C(F)(F)F)cc2)O1)NCC1CCCCC1`, with 1.21 µM; and `Cc1cc(C(=O)Nc2cccc3c2O[C@@H](CN(C)Cc2ccc(-c4ccccc4)cc2)[C@H](C)CN([C@@H](C)CO)C3=O)n(C)n1`, with 1.01 µM.
Take `O=C(C[C@@H]1CC[C@@H]2[C@H](COC[C@@H](O)CN2C(=O)Nc2cc(Cl)cc(Cl)c2)O1)N1CCOCC1`: the AC50 is 14.2 µM.
With `CO[C@H](CN(C)C(=O)C1CCOCC1)[C@@H](C)CN(C(=O)Nc1ccc(C(F)(F)F)cc1)[C@H](C)CO`, the AC50 is 0.831 µM.
In the case of `C[C@@H]1CN([C@@H](C)CO)C(=O)c2cc(NS(=O)(=O)c3cn(C)cn3)ccc2O[C@@H](C)CCCCO[C@@H]1CN(C)C(=O)Nc1ccc(C(F)(F)F)cc1`, the AC50 was 5.78 µM.
As for `O=C(C[C@@H]1CC[C@H]2[C@@H](COC[C@@H](O)CN2C(=O)Nc2ccc(Cl)c(Cl)c2)O1)NCc1ccc(Cl)cc1`, the AC50 was 1.04 µM.
For `CO[C@@H](CN(C)C(=O)C1CC1)[C@@H](C)CN(C(=O)Nc1ccc(C(F)(F)F)cc1)[C@H](C)CO`, the AC50 was 14.7 µM.
In the case of `CO[C@@H]1CN(C)C(=O)c2cc(NC(=O)Nc3cc(Cl)cc(Cl)c3)ccc2OC[C@H](C)NC[C@H]1C`, the AC50 is 5.04 µM.
Consider `C[C@H]1CN([C@@H](C)CO)C(=O)c2cccc(NC(=O)Nc3ccc(C(F)(F)F)cc3)c2O[C@H]1CN(C)C(=O)Nc1ccc(F)cc1`, for which the AC50 was 23.4 µM.
Regarding `CCNC(=O)C[C@@H]1CC[C@H]2[C@@H](COC[C@@H](O)CN2C(=O)Nc2ccc(C(F)(F)F)cc2)O1`, the AC50 is 10.4 µM.
Consider `CC(C)NC(=O)N(C)C[C@@H]1Oc2c(NC(=O)Nc3ccc(C(F)(F)F)cc3)cccc2C(=O)N([C@H](C)CO)C[C@@H]1C`, for which the AC50 was 23.3 µM.
As to `CC(=O)N[C@H]1CC[C@@H](CCNC(=O)Nc2ccc(C(F)(F)F)cc2)O[C@@H]1CO`, the AC50 is 10.8 µM.
With `Cc1ccc(S(=O)(=O)Nc2ccc3c(c2)C(=O)N([C@@H](C)CO)C[C@H](C)[C@@H](CN(C)Cc2ccc4c(c2)OCO4)OCCCC[C@@H](C)O3)cc1`, the AC50 is 7.88 µM.
The result for `CCC(=O)N[C@@H]1CC[C@H](CCNC(=O)Nc2ccc(C(F)(F)F)cc2)O[C@H]1CO` reads 7.27 µM; that for `O=C(C[C@@H]1CC[C@@H]2[C@H](COC[C@@H](O)CN2S(=O)(=O)c2ccccc2)O1)NCC1CCCCC1`, 15.2 µM; that for `COc1cccc(C#Cc2ccc3c(c2)O[C@@H](CN(C)C)[C@H](C)CN([C@H](C)CO)S3(=O)=O)c1`, 25.8 µM.
Then `CO[C@H]1CN(C)C(=O)c2ccc(NC(=O)Nc3cc(Cl)cc(Cl)c3)cc2OC[C@@H](C)NC[C@@H]1C`, with 15.9 µM; and `O=C(C[C@@H]1CC[C@H]2[C@@H](COC[C@@H](O)CN2CC2CCCCC2)O1)NCc1ccc(Cl)cc1`, with > 60 µM (inactive); and `O=C(C[C@@H]1CC[C@H]2[C@@H](COC[C@H](O)CN2C(=O)Nc2cc(Cl)cc(Cl)c2)O1)N1CCOCC1`, with 17.6 µM.
Then `CO[C@H]1CN(C)C(=O)c2ccc(NC(=O)Nc3ccc(Cl)c(Cl)c3)cc2OC[C@H](C)NC[C@@H]1C`, with 1.2 µM; and `CCCNC(=O)C[C@@H]1CC[C@@H]2[C@H](COC[C@H](O)CN2C(=O)Nc2ccc(Cl)c(Cl)c2)O1`, with 3.54 µM; and `C[C@@H]1CCCCO[C@@H](CN(C)CC2CCCCC2)[C@H](C)CN([C@@H](C)CO)C(=O)c2cc(NC(=O)Nc3ccc(C(F)(F)F)cc3)ccc2O1`, with 12.6 µM.
With `O=C(C[C@@H]1CC[C@H]2[C@@H](COC[C@H](O)CN2C(=O)Nc2ccc(Cl)c(Cl)c2)O1)NCc1ccc(Cl)c(Cl)c1`, the AC50 is 1.1 µM.
For the compound `CO[C@H]1CN(C)C(=O)c2cc(NC(=O)Nc3cc(Cl)cc(Cl)c3)ccc2OC[C@@H](C)NC[C@H]1C`, the half-maximal activity concentration (AC50) is 9.49 µM.
On to `COc1cccc(C#Cc2ccc([C@@H]3[C@@H](C#N)N(C(=O)C4CCC4)[C@H]3CO)cc2)c1`, for which the AC50 is > 60 µM (inactive).
With `C[C@H]1CN([C@@H](C)CO)C(=O)c2ccccc2-c2ccccc2CO[C@H]1CN(C)Cc1ccc(F)cc1`, the AC50 is > 16 µM (inactive).
Turning to `O=C(NCC[C@@H]1CC[C@@H](NC(=O)c2cccnc2)[C@H](CO)O1)Nc1ccc(C(F)(F)F)cc1`, the AC50 was 3.16 µM.
In the case of `C[C@@H]1CCCCO[C@@H](CN(C)C(=O)CCCN(C)C)[C@H](C)CN([C@H](C)CO)C(=O)c2cc(NC(=O)Nc3ccc(C(F)(F)F)cc3)ccc2O1`, the AC50 was 7.16 µM.
On to `CO[C@@H]1CN(C)C(=O)c2cc(NC(=O)Nc3ccc(F)cc3)ccc2OC[C@@H](C)NC[C@@H]1C`, for which the AC50 was > 60 µM (inactive).
Then `CCNC(=O)C[C@@H]1CC[C@@H]2[C@H](COC[C@H](O)CN2C(=O)Nc2ccc(C(F)(F)F)cc2)O1`, with 11.8 µM; and `O=C(C[C@@H]1CC[C@H]2[C@@H](COC[C@@H](O)CN2C(=O)Nc2ccc(C(F)(F)F)cc2)O1)NCCc1ccncc1`, with 4.89 µM; and `O=C(NCC[C@H]1CC[C@@H](NC(=O)c2cccnc2)[C@H](CO)O1)Nc1ccc(C(F)(F)F)cc1`, with 2.42 µM.
`C[C@H]1CN([C@@H](C)CO)S(=O)(=O)c2ccc(C#CC3CCCC3)cc2O[C@@H]1CN(C)Cc1cccnc1`: the AC50 is > 60 µM (inactive).
Take `CC(=O)N[C@@H]1CC[C@H](CCNC(=O)Nc2ccc(C(F)(F)F)cc2)O[C@H]1CO`: the AC50 was 11.8 µM.
As to `C[C@@H]1CCCCO[C@@H](CN(C)CC2CC2)[C@H](C)CN([C@@H](C)CO)C(=O)c2cc(NC(=O)Nc3ccc(C(F)(F)F)cc3)ccc2O1`, the AC50 is 17.6 µM.
In the case of `CNC[C@@H]1OCCCC[C@@H](C)Oc2ccc(NC(=O)Nc3ccc(C(F)(F)F)cc3)cc2C(=O)N([C@@H](C)CO)C[C@@H]1C`, the AC50 was 17.5 µM.
Then `C[C@@H]1CN([C@@H](C)CO)C(=O)Cc2cc(NS(C)(=O)=O)ccc2O[C@H]1CN(C)Cc1ccc(Cl)c(Cl)c1`, with 8.49 µM; and `O=C(C[C@H]1CC[C@H]2[C@@H](COC[C@@H](O)CN2C(=O)Nc2ccc(Cl)c(Cl)c2)O1)NCc1ccc(Cl)cc1`, with 1.03 µM.
Consider `CCNC(=O)C[C@@H]1CC[C@@H]2[C@H](COC[C@H](O)CN2C(=O)Nc2ccc(Cl)c(Cl)c2)O1`, for which the half-maximal activity concentration (AC50) was 4.07 µM.
In the case of `O=C(C[C@@H]1CC[C@H]2[C@@H](COC[C@@H](O)CN2C(=O)Nc2ccc(Cl)c(Cl)c2)O1)NC1CCC1`, the AC50 is 3.86 µM.
Then `C[C@H]1CCCCO[C@H](CN(C)Cc2ccccc2)[C@@H](C)CN([C@@H](C)CO)C(=O)c2cc(NC(=O)Nc3ccc(C(F)(F)F)cc3)ccc2O1`, with 18.2 µM; and `COc1ccc(CN(C)C[C@@H]2OCCCC[C@H](C)Oc3ccc(NC(=O)Nc4cccc5ccccc45)cc3C(=O)N([C@H](C)CO)C[C@H]2C)cc1`, with 22.6 µM.
Regarding `C[C@H]1CN([C@@H](C)CO)S(=O)(=O)c2ccc(C#Cc3cccc(F)c3)cc2O[C@H]1CN(C)C`, the half-maximal activity concentration (AC50) is 24.8 µM.
Take `N#C[C@@H]1[C@H](c2ccc(C#Cc3ccc(F)cc3)cc2)[C@@H](CO)N1C(=O)C1CCCC1`: the AC50 was > 70 µM (inactive).
With `CCCNC(=O)C[C@H]1CC[C@H]2[C@@H](COC[C@@H](O)CN2C(=O)Nc2ccc(Cl)c(Cl)c2)O1`, the AC50 was 2.78 µM.
